Structures can show the parent of a compound that is named as a salt. Where two headings read alike, the source gives them in different places.
Biological target: T1, His6-AspH315–758 (human aspartate/asparagine-β-hydroxylase, AspH) (Homo sapiens, UniProt Q12797)
T1 construct: N-Terminally His6-tagged human AspH315–758 (His6-AspH315–758) was produced in E. coli BL21 (DE3) cells; made in house; host or cells: E. coli BL21 (DE3), pET-28a(+) vector
T1 sequence (Q12797 315-758): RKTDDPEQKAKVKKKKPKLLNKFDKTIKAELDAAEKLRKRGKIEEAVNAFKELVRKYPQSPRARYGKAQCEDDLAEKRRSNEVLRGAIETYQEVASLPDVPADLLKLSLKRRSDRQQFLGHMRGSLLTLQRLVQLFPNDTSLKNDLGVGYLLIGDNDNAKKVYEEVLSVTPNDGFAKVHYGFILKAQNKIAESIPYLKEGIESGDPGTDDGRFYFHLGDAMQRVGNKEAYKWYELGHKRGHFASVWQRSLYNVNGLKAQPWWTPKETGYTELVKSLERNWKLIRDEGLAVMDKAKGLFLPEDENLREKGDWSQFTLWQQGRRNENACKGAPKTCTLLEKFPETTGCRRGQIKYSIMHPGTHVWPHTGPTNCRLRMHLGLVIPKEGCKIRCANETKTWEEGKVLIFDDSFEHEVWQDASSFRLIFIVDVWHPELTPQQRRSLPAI
Experiment: SPE-MS AspH inhibition assay (LOPAC screen at fixed 20 μM and IC50 dose-response), hydroxylation of cyclic peptide hFX-CP101–119
Type: biochemical
Settings: for Plate 5 (% inhibition) / Plate 5 (% conversion): plate 5 (Pfitzer), test compounds at fixed 20 μM; for Plate 5 (% conversion): mean conversion DMSO 32.88

[1] = LOPAC compound at fixed 20 uM, plate 1, normalised to DMSO and 2,4-PDCA controls
[2] = LOPAC compound at fixed 20 uM, substrate conversion, plate 1
[3] = LOPAC Plate 4, compound at 20 uM, substrate conversion
[4] = LOPAC Plate 4, compound at 20 uM, read-out: % inhibition
[5] = LOPAC compound at 20uM, plate 2, conversion of substrate peptide
[6] = LOPAC compound at 20uM, plate 2, normalised to DMSO and 2,4-PDCA controls
[7] = LOPAC compound at 20uM, plate 3, conversion of substrate peptide
[8] = AspH activity, fixed compound concentration 20 μM, initial LOPAC screen, 0.5%v/v DMSO, read-out: Inhibition at 20 µM [%]
[9] = LOPAC compound at 20uM, plate 2, normalised to DMSO and 2,4-PDCA controls, read-out: Plate 2 (% inhibition)

With `CC(C)NC[C@H](O)COc1ccc(CC(N)=O)cc1` [S(-)-Atenolol] the “Plate 1 (% inhibition)” value [1] was -5.71% and the “Plate 1 (% conversion)” value [2] was 37.79%.

For `Cl.NC1(C(=O)O)CC1`, the “Plate 1 (% inhibition)” value [1] was -3.97%.

With `CC[C@]1(O)C[C@H]2CN(CCc3c([nH]c4ccccc34)[C@@](C(=O)OC)(c3cc4c(cc3OC)N(C=O)[C@H]3[C@@](O)(C(=O)OC)[C@H](OC(C)=O)[C@]5(CC)C=CCN6CC[C@]43[C@@H]65)C2)C1` [Vincristine sulfate] the “% conversion” value [3] was 40.04% and the inhibition at 20 µM [4] was -10.5%.

In the case of `CCn1c(=O)[nH]c2cc(Cl)c(Cl)cc21` [DCEBIO], the “Plate 2 (% conversion)” value [5] is reported as 39.27% and the “Plate 2 (% inhibition)” value [6] is reported as -9.89%.

`CCC(C)N(C)C(=O)c1cc2ccccc2c(-c2ccccc2Cl)n1` (centres unmarked) [PK 11195] was tested, and the “Plate 1 (% inhibition)” value [1] was -10.48% and the “Plate 1 (% conversion)” value [2] was 39.39%.

For `NCC(O)(CS(=O)(=O)O)c1ccc(Cl)cc1` (centres unmarked) [2-Hydroxysaclofen], the “Plate 1 (% inhibition)” value [1] was -6.82% and the “Plate 1 (% conversion)” value [2] was 38.16%.

With `CNCCNS(=O)(=O)c1cccc2cnccc12.Cl.Cl` [H-8 dihydrochloride] the “Plate 3 (% conversion)” value [7] was 37.53%.

`O=C(/C=C/c1ccc(O)cc1)c1ccc(O)cc1O` [Isoliquiritigenin] was tested, and the “Plate 3 (% conversion)” value [7] was 31.17%.

With `CC(C)[C@H]1CN[C@H](C(=O)O)[C@H]1CC(=O)O` [Dihydrokainic acid] the “Plate 2 (% conversion)” value was 34.38% and the “Plate 2 (% inhibition)” value (20 µM) was 4.72%.

With 5-Bromo-2-deoxyuridine the “Plate 1 (% conversion)” value was 35.50% and the “Plate 1 (% inhibition)” value was 1.12%.

In the case of `CCN(CC)CCNC(=O)c1cc(S(C)(=O)=O)ccc1OC` [Tiapride hydrochloride], the “% conversion” value [3] is reported as 37.21% and the inhibition at 20 µM [4] is reported as -2.16%.

In the case of `O=C(c1ccc(OCCN2CCCCC2)cc1)c1c(-c2ccc(O)cc2)sc2cc(O)ccc12` [Raloxifene hydrochloride], the “% conversion” value [3] is reported as 40.15% and the inhibition at 20 µM [4] is reported as -10.8%.

`C[C@]12CC[C@@H]3c4ccc(O)cc4C[C@@H](CCCCCCCCC[S+]([O-])CCCC(F)(F)C(F)(F)F)[C@H]3[C@@H]1CC[C@@H]2O` (some centres unmarked) [Fulvestrant] was tested, and the “Plate 1 (% inhibition)” value [1] was 12.89% and the “Plate 1 (% conversion)” value [2] was 31.54%.

For `Cl.Fc1ccc(CN(C2=NCCN2)c2c(Cl)cccc2Cl)cc1` [IMID-4F hydrochloride], the “Plate 2 (% conversion)” value [5] was 39.35% and the “Plate 2 (% inhibition)” value [6] was -10.13%.

`O=C(O)c1cc(=O)c2c(Cl)cc(Cl)cc2[nH]1` [5,7-Dichlorokynurenic acid] was tested, and the “Plate 2 (% conversion)” value [5] was 35.63% and the “Plate 2 (% inhibition)” value [6] was 0.98%.

With `Cc1cc2c(s1)Nc1ccccc1N=C2N1CCN(C)CC1` [Olanzapine] the “% conversion” value was 42.51% and the inhibition at 20 µM was -17.7%.

For `Cc1c(O)c(=O)ccn1C` [Deferiprone, reference compound], the IC50 (50 nM His6-AspH315–758, 1.0 μM hFX-CP101–119, 3 μM 2OG, 2 μM Fe(II), 50 mM HEPES pH 7.5, 20 °C, mean ± SD, n = 2 (2,4-PDCA n = 10), read-out: IC50) was 4.89 ± 0.37 µM.

`O=C(CCCN1CCC2(CC1)C(=O)NCN2c1ccccc1)c1ccc(F)cc1` [Spiperone hydrochloride] was tested, and the “% conversion” value [3] was 26.03% and the inhibition at 20 µM [4] was 30.6%.

With `CC1=C(/C=C/C(C)=C/C=C/C(C)=C/C=C/C=C(C)/C=C/C=C(C)/C=C/C2=C(C)C(=O)[C@@H](O)CC2(C)C)C(C)(C)C[C@H](O)C1=O` [Astaxanthin] the “Plate 1 (% inhibition)” value [1] was -2.40% and the “Plate 1 (% conversion)” value [2] was 36.68%.

`N#CC(C#N)=C(N)/C(C#N)=C/c1cc(O)c(O)c(O)c1` [Tyrphostin 51, reference compound] was tested, and the inhibition at 20 µM [8] was 101%, the “% conversion” value [3] was 2.15% and the inhibition at 20 µM [4] was 101%.

In the case of `CN(C)C(=O)N=NC(=O)N(C)C` [N,N,N,N-Tetramethylazodicarboxamide], the “Plate 2 (% conversion)” value [5] is reported as 38.74% and the “Plate 2 (% inhibition)” value [6] is reported as -8.32%.

For `Cc1cc(C)c(/C=C2\C(=O)Nc3ccc(Cl)cc32)[nH]1` [SU5614], the “Plate 5 (% inhibition)” value was 8.69%.

For `O=C(O)/C=C/C(=O)O.O=C(O)/C=C/C(=O)O.O=C(O)/C=C/C(=O)O.O=C1CCCN1CC#CCN1CCCC1.O=C1CCCN1CC#CCN1CCCC1` [Oxotremorine sesquifumarate salt], the “Plate 3 (% conversion)” value was 14.90%.

With `CC[N+](CC)(CC)CCOc1cccc(OCC[N+](CC)(CC)CC)c1OCC[N+](CC)(CC)CC` [Gallamine triethiodide] the “Plate 2 (% conversion)” value [5] was 33.88% and the inhibition at 20 µM [9] was 6.21%.

In the case of `NC(=O)OCC(COC(N)=O)c1ccccc1` [Felbamate], the “Plate 2 (% conversion)” value [5] is reported as 34.68% and the inhibition at 20 µM [9] is reported as 3.82%.

For `O=C1NCN(c2ccccc2)C12CCN(CCCC(c1ccc(F)cc1)c1ccc(F)cc1)CC2` [Fluspirilene], the “Plate 2 (% conversion)” value [5] was 58.99% and the inhibition at 20 µM [9] was -68.8%.

`NCCc1c[nH]cn1` [Histamine dihydrochloride] was tested, and the “Plate 2 (% conversion)” value [5] was 39.28% and the inhibition at 20 µM [9] was -9.92%.

With `CCOc1ncc(S(=O)(=O)N2CCN(CC)CC2)cc1-c1nc2c(CC)n(CCOC)nc2c(=O)[nH]1` [Gisadenafil] the “Plate 5 (% inhibition)” value was 10.85% and the “Plate 5 (% conversion)” value was 32.62%.

In the case of `C[C@]12C=CC(=O)C=C1CC[C@H]1[C@@H]3C[C@@H](O)[C@](O)(C(=O)CO)[C@@]3(C)C[C@H](O)[C@@]12F` [Triamcinolone], the “% conversion” value [3] is reported as 30.89%.

`CCCCc1ncc(/C=C(\Cc2cccs2)C(=O)O)n1Cc1ccc(C(=O)O)cc1` [Eprosartan mesylate] was tested, and the “Plate 3 (% conversion)” value [7] was 33.79%.

With `CCCC1O[C@@H]2C[C@H]3[C@@H]4CCC5=CC(=O)C=C[C@]5(C)[C@H]4[C@@H](O)C[C@]3(C)[C@]2(C(=O)CO)O1` (some centres unmarked) [Budesonide] the “Plate 1 (% inhibition)” value [1] was -13.14% and the “Plate 1 (% conversion)” value [2] was 40.29%.

`COc1ccc(-c2cc3nccn3c(Nc3ncccc3C(N)=O)n2)cc1OC.Cl.O` [BAY 61-3606 hydrochloride hydrate] was tested, and the “% conversion” value [3] was 33.04%.

For `CO/N=C(\C(=O)N[C@@H]1C(=O)N2C(C(=O)O)=C(COC(C)=O)CS[C@H]12)c1csc(N)n1` [Cefotaxime sodium], the “Plate 1 (% inhibition)” value [1] was 3.71% and the “Plate 1 (% conversion)” value [2] was 34.63%.

With `S=C(Nc1ccccc1)Nc1nccs1` [1-Phenyl-3-(2-thiazolyl)-2-thiourea] the “Plate 3 (% conversion)” value was 40.98%.

`O=c1ccc2ccc(O)c(O)c2o1` [Daphnetin, reference compound] gave an inhibition at 20 µM [8] of 98.5%.

With `CC(=O)OC(C)C[N+](C)(C)C.[Cl-]` (stereo not drawn) [Acetyl-beta-methylcholine chloride] the “Plate 1 (% inhibition)” value [1] was -15.64% and the “Plate 1 (% conversion)” value [2] was 41.13%.

In the case of `N[C@@H]1[C@H]2CN(c3nc4c(cc3F)c(=O)c(C(=O)O)cn4-c3ccc(F)cc3F)C[C@@H]12` [Trovafloxacin], the “Plate 5 (% inhibition)” value is reported as -0.64% and the “Plate 5 (% conversion)” value is reported as 36.53%.

With `NC1(C(=O)O)CCc2cc(C(=O)O)ccc21` (centres unmarked) [AIDA] the “Plate 1 (% inhibition)” value [1] was 3.11% and the “Plate 1 (% conversion)” value [2] was 34.83%.

With `Cl.O=C(O)Cc1c[nH]cn1` [Imidazole-4-acetic acid hydrochloride] the “Plate 2 (% conversion)” value was 36.46% and the “Plate 2 (% inhibition)” value (20 µM) was -1.52%.

With `CC(C)NC[C@H](O)c1ccc(O)c(O)c1.O=C(O)C(O)C(O)C(=O)O` [R(-)-Isoproterenol (+)-bitartrate] the “Plate 2 (% conversion)” value [5] was 5.85% and the “Plate 2 (% inhibition)” value [6] was 89.92%.

For `NC(N)=NOCC[C@H](N)C(=O)O.O=S(=O)(O)O` [L-Canavanine sulfate], the “Plate 1 (% conversion)” value was 38.13% and the “Plate 1 (% inhibition)” value was -6.73%.

`CCCCS(=N)(=O)CCC(N)C(=O)O` (racemic) [DL-Buthionine-[S,R]-sulfoximine] was tested, and the “Plate 1 (% conversion)” value was 34.26% and the “Plate 1 (% inhibition)” value was 4.80%.

`O=c1ccc2c(OCCCCc3ccccc3)c3ccoc3cc2o1` [Psora-4] was tested, and the “Plate 1 (% inhibition)” value [1] was 4.97% and the “Plate 1 (% conversion)” value [2] was 34.20%.

With `O=C(O)C1=CC(=C(c2ccc(O)c(C(=O)O)c2)c2ccc(O)c(C(=O)O)c2)C=CC1=O` [Aurintricarboxylic acid, reference compound] the inhibition at 20 µM [8] was 104%, the “Plate 1 (% inhibition)” value [1] was 103.81% and the “Plate 1 (% conversion)” value [2] was 1.01%.

In the case of `CC(C)c1c(-c2ccccc2)[nH]c2c(C#N)cnn2c1=O` [CPI-455, reference compound], the “IC50 [μM]” value (50 nM His6-AspH315–758, 1.0 μM hFX-CP101–119, 3 μM 2OG, 2 μM Fe(II), 50 mM HEPES pH 7.5, 20 °C, mean ± SD, n = 2 (2,4-PDCA n = 10)) is reported as “inactive”.

`Nc1ccncc1` [4-Aminopyridine] was tested, and the “Plate 1 (% conversion)” value was 34.98%.

`CSc1nc(N)c2ncn([C@@H]3O[C@H](COP(=O)([O-])OP(=O)([O-])OP(=O)([O-])[O-])[C@@H](O)[C@H]3O)c2n1.[Na+].[Na+].[Na+].[Na+]` was tested, and the “Plate 1 (% inhibition)” value [1] was 63.66% and the “Plate 1 (% conversion)” value [2] was 14.49%.

With `Cc1nc2c([nH]1)c(=O)n(C)c(=O)n2Cc1ccco1` [Furafylline] the “Plate 2 (% conversion)” value [5] was 36.33% and the inhibition at 20 µM [9] was -1.12%.

In the case of `CC(=O)O[C@H]1Cc2ccccc2N(C(N)=O)c2ccccc21` [BIA 2-093], the “% conversion” value [3] is reported as 30.46%.

With `O.c1cnc2c(c1)ccc1cccnc12` [1,10-Phenanthroline monohydrate, reference compound] the “% conversion” value was 3.10%, the inhibition at 20 µM was 97.8% and the inhibition at 20 µM (read-out: Inhibition at 20 µM [%]) was 97.8%.
